28 compounds from US20240002391A1, “4-ALKOXYPYRROLO[2,1-F][1,2,4]TRIAZINES AND PREPARATION AND USES THEREOF” (BioSplice Therapeutics, Inc., priority 2022, published 2024) can be followed below.

In this assay the target is recombinant DYRK1A kinase (Homo sapiens (Human), UniProt Q13627). Nature of the assay: DYRK1A kinase assay (Ser/Thr 18 peptide Z-lyte FRET). The format is biochemical. As to conditions: DYRK1A kinase activity, Z-lyte Ser/Thr 18 peptide, 15 μM ATP; method text calls the value IC50; read-out: EC50 (the source's name). In short, it runs like this:
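Steps: combine 0.25 μg/mL kinase, 15 μM ATP and 4 μM peptide with test compound; incubate 1 h at room temperature; add diluted development reagent for another hour; read coumarin and fluorescein emission at Ex 400. The emission ratio yields percent phosphorylation, from which IC50 is derived.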
Consider `CC(=O)N1C[C@H](F)[C@H](Nc2nc(O)c3c(-c4cnc5nccn5c4)ccn3n2)C1` [Compound 263, 1-((3S,4R)-3-Fluoro-4-((4-hydroxy-5-(imidazo[1,2-a]pyrimidin-6-yl)pyrrolo[2,1-f][1,2,4]triazin-2-yl)amino)pyrrolidin-1-yl)ethan-1-one], for which the IC50 is 112 nM. Take `CCO[C@H]1C[C@@H](Nc2nc(OC)c3c(-c4cnc5nccn5c4)ccn3n2)C1` [Compound 931, N-(cis-3-Ethoxycyclobutyl)-5-(imidazo[1,2-a]pyrimidin-6-yl)-4-methoxypyrrolo[2,1-f][1,2,4]triazin-2-amine]: the IC50 turned out to be 1.5 nM. On to `COc1nc(N[C@H]2CCN(C(C)=O)C[C@H]2F)nn2ccc(-c3ccc4nnn(C(C)C)c4c3)c12` [Compound 686, 1-((3R,4S)-3-Fluoro-4-((5-(1-isopropyl-1H-benzo[d][1,2,3]triazol-6-yl)-4-methoxypyrrolo[2,1-f][1,2,4]triazin-2-yl)amino)piperidin-1-yl)ethan-1-one], for which the IC50 amounted to 3.4 nM.

Take `CCOc1nc(NC2CC3(C2)CN(C(C)=O)C3)nn2ccc(-c3ccn4nccc4c3)c12` [Compound 99, 1-(6-((4-Ethoxy-5-(pyrazolo[1,5-a]pyridin-5-yl)pyrrolo[2,1-f][1,2,4]triazin-2-yl)amino)-2-azaspiro[3.3]heptan-2-yl)ethan-1-one]: the IC50 worked out at 4.5 nM.

On to `COc1nc(NC2CCN(CC(F)F)CC2)nn2ccc(-c3ccc4nccn4c3)c12` [Compound 61, N-(1-(2,2-Difluoroethyl)piperidin-4-yl)-5-(imidazo[1,2-a]pyridin-6-yl)-4-methoxypyrrolo[2,1-f][1,2,4]triazin-2-amine], for which the IC50 amounted to 4.9 nM. Under `COc1nc(N[C@@H]2CCN(C)C[C@@H]2F)nn2ccc(-c3ccc4nc(C)n(CC(F)F)c4c3)c12` [Compound 124, 5-(1-(2,2-Difluoroethyl)-2-methyl-1H-benzo[d]imidazol-6-yl)-N-((3S,4R)-3-fluoro-1-methylpiperidin-4-yl)-4-methoxypyrrolo[2,1-f][1,2,4]triazin-2-amine] stands 2.8 nM; under `COc1nc(N[C@H]2CCN(CC(C)(C)O)C[C@H]2F)nn2ccc(-c3ccc4ncccc4c3)c12` [Compound 1045, 1-((3R,4S)-3-Fluoro-4-((4-methoxy-5-(quinolin-6-yl)pyrrolo[2,1-f][1,2,4]triazin-2-yl)amino)piperidin-1-yl)-2-methylpropan-2-ol], 4.5 nM. Under `CC[C@]1(O)CC[C@@H](Nc2nc(OC)c3c(-c4ccc5nnn(CC(F)F)c5c4)ccn3n2)CC1` [Compound 726, (1s,4s)-4-((5-(1-(2,2-Difluoroethyl)-1H-benzo[d][1,2,3]triazol-6-yl)-4-methoxypyrrolo[2,1-f][1,2,4]triazin-2-yl)amino)-1-ethylcyclohexan-1-ol] stands 1.8 nM; under `COc1nc(NC23CCC(O)(CC2)C3)nn2ccc(-c3ccc4ncnn4c3)c12` [Compound 582, 4-((5-([1,2,4]Triazolo[1,5-a]pyridin-6-yl)-4-methoxypyrrolo[2,1-f][1,2,4]triazin-2-yl)amino)bicyclo[2.2.1]heptan-1-ol], 40.9 nM. As to `COc1nc(N[C@H]2CCN(C3COC3)C[C@H]2F)nn2ccc(-c3ccc4nnn(CCF)c4c3)c12` [Compound 666, N-((3R,4S)-3-Fluoro-1-(oxetan-3-yl)piperidin-4-yl)-5-(1-(2-fluoroethyl)-1H-benzo[d][1,2,3]triazol-6-yl)-4-methoxypyrrolo[2,1-f][1,2,4]triazin-2-amine], the IC50 was 1.1 nM.

With `COc1nc(N[C@H]2CCN(C3COC3)C[C@H]2F)nn2ccc(-c3cc(F)c4nc(C)n(CC(F)F)c4c3)c12` [Compound 161, 5-(1-(2,2-Difluoroethyl)-4-fluoro-2-methyl-1H-benzo[d]imidazol-6-yl)-N-((3R,4S)-3-fluoro-1-(oxetan-3-yl)piperidin-4-yl)-4-methoxypyrrolo[2,1-f][1,2,4]triazin-2-amine], the IC50 came to 3 nM. For the compound `COc1nc(N[C@H]2CC[C@@H](NC(C)=O)CC2)nn2ccc(-c3ccc4nnn(CC(F)F)c4c3)c12` [Compound 717, N-(cis-4-((5-(1-(2,2-Difluoroethyl)-1H-benzo[d][1,2,3]triazol-6-yl)-4-methoxypyrrolo[2,1-f][1,2,4]triazin-2-yl)amino)cyclohexyl)acetamide], the IC50 was 2.3 nM. Consider `COc1nc(N[C@@H]2CCN(CCF)C[C@@H]2F)nn2ccc(-c3ccc4nc(C)n(CC(F)F)c4c3)c12` [Compound 129, 5-(1-(2,2-Difluoroethyl)-2-methyl-1H-benzo[d]imidazol-6-yl)-N-((3S,4R)-3-fluoro-1-(2-fluoroethyl)piperidin-4-yl)-4-methoxypyrrolo[2,1-f][1,2,4]triazin-2-amine], for which the IC50 was found to be 2.6 nM.

Regarding `COc1nc(N[C@H]2CCN(C3COC3)CC2(F)F)nn2ccc(-c3ccc4ncccc4c3)c12` [Compound 322, (S)—N-(3,3-Difluoro-1-(oxetan-3-yl)piperidin-4-yl)-4-methoxy-5-(quinolin-6-yl)pyrrolo[2,1-f][1,2,4]triazin-2-amine], the IC50 is 6.6 nM. `COc1nc(NC2CCC3(CC2)COC3)nn2ccc(-c3ccc4ncnn4c3)c12` [Compound 198, 5-([1,2,4]Triazolo[1,5-a]pyridin-6-yl)-4-methoxy-N-(2-oxaspiro[3.5]nonan-7-yl)pyrrolo[2,1-f][1,2,4]triazin-2-amine]: the IC50 was found to be 4.5 nM. As for `COc1nc(N[C@H]2CC[C@](C)(O)CC2)nn2ccc(-c3ccc4nnn(C(C)C)c4c3)c12` [Compound 681, (1r,4r)-4-((5-(1-Isopropyl-1H-benzo[d][1,2,3]triazol-6-yl)-4-methoxypyrrolo[2,1-f][1,2,4]triazin-2-yl)amino)-1-methylcyclohexan-1-ol], the figure is 1.9 nM. Under `COc1nc(N[C@H]2CCN(C)CC2(F)F)nn2ccc(-c3ccc4ncccc4c3)c12` [Compound 320, (S)—N-(3,3-Difluoro-1-methylpiperidin-4-yl)-4-methoxy-5-(quinolin-6-yl)pyrrolo[2,1-f][1,2,4]triazin-2-amine] stands 8.2 nM; under `COc1nc(N[C@H]2C[C@@](C)(O)C2)nn2ccc(-c3cc4ncccc4[nH]3)c12` [Compound 277, cis-3-((4-Methoxy-5-(1H-pyrrolo[3,2-b]pyridin-2-yl)pyrrolo[2,1-f][1,2,4]triazin-2-yl)amino)-1-methylcyclobutan-1-ol], 63.3 nM.

In the case of `COc1nc(N[C@H]2CC[C@](C)(O)CC2)nn2ccc(-c3cc(F)c4nnn(CC(F)F)c4c3)c12` [Compound 811, (1r,4r)-4-((5-(1-(2,2-Difluoroethyl)-4-fluoro-1H-benzo[d][1,2,3]triazol-6-yl)-4-methoxypyrrolo[2,1-f][1,2,4]triazin-2-yl)amino)-1-methylcyclohexan-1-ol], the IC50 worked out at 1.7 nM. Under `COc1nc(N[C@H]2C[C@](C)(C(=O)NC3CC3)C2)nn2ccc(-c3ccc4nc(C)n(CC(F)F)c4c3)c12` [Compound 503, trans-N-Cyclopropyl-3-((5-(1-(2,2-difluoroethyl)-2-methyl-1H-benzo[d]imidazol-6-yl)-4-methoxypyrrolo[2,1-f][1,2,4]triazin-2-yl)amino)-1-methylcyclobutane-1-carboxamide] stands 2.3 nM; under `COc1nc(N[C@H]2CCN(C3COC3)C[C@H]2F)nn2ccc(-c3cc(F)c4nc(C)n(C(C)C)c4c3)c12` [Compound 1142, N-((3R,4S)-3-Fluoro-1-(oxetan-3-yl)piperidin-4-yl)-5-(4-fluoro-1-isopropyl-2-methyl-1H-benzo[d]imidazol-6-yl)-4-methoxypyrrolo[2,1-f][1,2,4]triazin-2-amine], 2.3 nM; under `CCO[C@H]1C[C@@H](Nc2nc(OC)c3c(-c4ccc5nnn(C)c5c4)ccn3n2)C1` [Compound 624, N-(cis-3-Ethoxycyclobutyl)-4-methoxy-5-(1-methyl-1H-benzo[d][1,2,3]triazol-6-yl)pyrrolo[2,1-f][1,2,4]triazin-2-amine], 8.6 nM. Turning to `CNC(=O)c1cnn2ccc(-c3ccn4nc(N[C@H]5CC[C@](C)(O)CC5)nc(OC)c34)cc12` [Compound 401, 5-(2-(((1r,4r)-4-Hydroxy-4-methylcyclohexyl)amino)-4-methoxypyrrolo[2,1-f][1,2,4]triazin-5-yl)-N-methylpyrazolo[1,5-a]pyridine-3-carboxamide], the IC50 worked out at 2.7 nM. With `COc1nc(N[C@H]2CC[C@H](O)CC2)nn2ccc(-c3ccc4nnn(CC(F)F)c4c3)c12` [Compound 719, trans-4-((5-(1-(2,2-Difluoroethyl)-1H-benzo[d][1,2,3]triazol-6-yl)-4-methoxypyrrolo[2,1-f][1,2,4]triazin-2-yl)amino)cyclohexan-1-ol], the IC50 worked out at 0.3 nM. As for `COc1nc(N[C@@H]2CCOC[C@H]2F)nn2ccc(-c3cnc4nccn4c3)c12` [Compound 1149, N-((3S,4R)-3-Fluorotetrahydro-2H-pyran-4-yl)-5-(imidazo[1,2-a]pyrimidin-6-yl)-4-methoxypyrrolo[2,1-f][1,2,4]triazin-2-amine], the figure is 4.5 nM. Take `COc1nc(N[C@@H]2CCN(C)CC2(F)F)nn2ccc(-c3ccc4nccnc4c3)c12` [Compound 375, (R)—N-(3,3-Difluoro-1-methylpiperidin-4-yl)-4-methoxy-5-(quinoxalin-6-yl)pyrrolo[2,1-f][1,2,4]triazin-2-amine]: the IC50 was determined as 3.3 nM.

Turning to `COc1nc(N[C@H]2CCN(CC(C)(C)O)C[C@H]2F)nn2ccc(-c3ccc4nnn(CC(F)F)c4c3)c12` [Compound 758, 1-((3R,4S)-4-((5-(1-(2,2-Difluoroethyl)-1H-benzo[d][1,2,3]triazol-6-yl)-4-methoxypyrrolo[2,1-f][1,2,4]triazin-2-yl)amino)-3-fluoropiperidin-1-yl)-2-methylpropan-2-ol], the IC50 came out at 1.1 nM. Under `COc1nc(N[C@H]2C[C@H](C(C)(C)O)C2)nn2ccc(-c3ccc4nccnc4c3)c12` [Compound 328, 2-(trans-3-((4-Methoxy-5-(quinoxalin-6-yl)pyrrolo[2,1-f][1,2,4]triazin-2-yl)amino)cyclobutyl)propan-2-ol] stands 5.4 nM.
